Measurements published in patent US8269026B2, “Lupane derivatives useful for treating HIV” (priority 2008, dated 2012).

What follows are compounds tested on HIV-1 (HIVIIIB) replication in MT2 cell line (assay: HIV-1 replication in MT2 cell line with and without 30% human serum (viral RT activity in supernatant)). Details: Human immunodeficiency virus 1, MT2 cells, with 30% human serum, average IC50 if tested more than once, read-out: MT2 (HIVIIIB) with HS 30% IC50 range.
Format: cell-based
Method: HIV-1 Replication in MT2 cell line with and without 30% human serum: The cells are infected at a Multiciplicity of Infection (MOI) of 0.5 for 3 h and then washed twice with complete media to remove residual virus. Cells are then resuspended at 0.5×10^6/ml in complete medium (RPMI, 10% FBS, 1% sodium pyruvate), and seeded into 96-well plates (6.25×10^4/well). The cells are cultured in the presence or absence of various concentrations of test compounds in serial dilutions for 3 days at 37° C. The test compounds are serially diluted in complete medium supplemented or not with 30% human serum. After 3 days, 100 μL of cultured medium with cells are replaced with 120 μL of freshly diluted test compounds in complete medium containing or not 30% Human serum. The level of HIV-1 replication is determined at days 5 after infection by the presence of viral RT activity in harvested supernatant fluid. The IC50 and IC90 values for the virus replication are determined by using GRAPHPAD PRISM software.
The IC50 of the compounds tested in accordance with the HIV replication activity assay MT2 (HIVIIIB) are represented in Table 1.

`Cc1cccc(C(=O)N[C@@]23CC[C@]4(C)[C@H](CC[C@@H]5[C@@]6(C)CC[C@H](OC(=O)CC(C)(C)C(=O)O)C(C)(C)[C@@H]6CC[C@]54C)C2=C(C(C)C)C(=O)C3)c1` [19-44, 3β-O-(3′,3′-Dimethylsuccinyl)-17β-(3-methylbenzamido)-21-oxolup-18-ene] and `CC(C)C1=C2[C@H]3CC[C@@H]4[C@@]5(C)CC[C@H](OC(=O)CC(C)(C)C(=O)O)C(C)(C)[C@@H]5CC[C@@]4(C)[C@]3(C)CC[C@@]2(NC(=O)c2ccccc2)CC1=O` [19-2, 3β-O-(3′,3% Dimethylsuccinyl)-17β-benzamido-21-oxolup-18-ene] cannot be ordered by IC50: less than 199 nM for the first, less than 199 nM for the second.

`CC(C)C1=C2C3CCC4[C@@]5(C)CC[C@H](OC(=O)CC(C)(C)C(=O)O)C(C)(C)C5CC[C@@]4(C)[C@]3(C)CC[C@@]2(NC(=O)c2ccccc2C(=O)O)CC1=O` (stereo partly drawn) [19-61, 3β-O-(3′,3′-Dimethylsuccinyl)-17β-(2-carboxy-benzamido)-21-oxolup-18-ene] and `CC(C)C1=C2[C@H]3CC[C@@H]4[C@@]5(C)CC[C@H](OC(=O)CC(C)(C)C(=O)O)C(C)(C)[C@@H]5CC[C@@]4(C)[C@]3(C)CC[C@@]2(NC(=O)Nc2ccccn2)CC1=O` [17-25, 3β-O-(3′,3′-Dimethylsuccinyl)-17β-(N′-pyridin-2-yl-ureido)-21-oxolup-18-ene] cannot be ordered by IC50: less than 199 nM for the first, less than 199 nM for the second.

Compared with `CC(C)C1=C2[C@H]3CC[C@@H]4[C@@]5(C)CC[C@H](OC(=O)CC(C)(C)C(=O)O)C(C)(C)[C@@H]5CC[C@@]4(C)[C@]3(C)CC[C@@]2(NC(=O)NCc2nncn2C)CC1=O` [17-74, 3β-O-(3′,3′-Dimethylsuccinyl)-17β-[N′-(4-methyl-4H-[1,2,4]triazol-3-yl-methyl)-ureido]-21-oxolup-18-ene], `CC(=O)N[C@@]12CC[C@]3(C)[C@H](CC[C@@H]4[C@@]5(C)CC[C@H](OC(=O)CC(C)(C)C(=O)O)C(C)(C)[C@@H]5CC[C@]43C)C1=C(C(C)C)C(=O)C2` [19-1, 3β-O-(3′,3′-Dimethylsuccinyl)-17β-acetylamino-21-oxolup-18-ene] is lower in IC50: greater than 1000 nM for the first, less than 199 nM for the second.

`CC(C)C1=C2C3CCC4[C@@]5(C)CC[C@H](OC(=O)CC(C)(C)C(=O)O)C(C)(C)C5CC[C@@]4(C)[C@]3(C)CC[C@@]2(NC(=O)N(C)C)CC1=O` (stereo partly drawn) [17-48, 3β-O-(3′,3′-Dimethylsuccinyl)-17β-[N′,N′-dimethyl-ureido]-21-oxolup-18-ene] and `CC(C)C1=C2C3CCC4[C@@]5(C)CC[C@H](OC(=O)CC(C)(C)C(=O)O)C(C)(C)C5CC[C@@]4(C)[C@]3(C)CC[C@@]2(NC(=O)NC2CC2)CC1=O` (stereo partly drawn) [17-22, 3β-O-(3′,3′-Dimethylsuccinyl)-17β-(N′-cyclopropyl-ureido)-21-oxolup-18-ene] cannot be ordered by IC50: less than 199 nM for the first, less than 199 nM for the second.

`CC(C)C1=C2[C@H]3CC[C@@H]4[C@@]5(C)CC[C@H](OC(=O)CC(C)(C)C(=O)O)C(C)(C)[C@@H]5CC[C@@]4(C)[C@]3(C)CC[C@@]2(NC(=O)Nc2ncccn2)CC1=O` [17-32, 3β-O-(3′,3′-Dimethylsuccinyl)-17β-(N′-pyrimidin-2-yl-ureido)-21-oxolup-18-ene] and `CC(C)C1=C2[C@H]3CC[C@@H]4[C@@]5(C)CC[C@H](OC(=O)CC(C)(C)C(=O)O)C(C)(C)[C@@H]5CC[C@@]4(C)[C@]3(C)CC[C@@]2(NC(=O)Nc2cncnc2)CC1=O` [17-44, 3β-O-(3′,3′-Dimethylsuccinyl)-17β-(N′-pyrimidin-5-yl-ureido)-21-oxolup-18-ene] cannot be ordered by IC50: less than 199 nM for the first, less than 199 nM for the second.

`CC(C)C1=C2[C@H]3CC[C@@H]4[C@@]5(C)CC[C@H](OC(=O)CC(C)(C)C(=O)O)C(C)(C)[C@@H]5CC[C@@]4(C)[C@]3(C)CC[C@@]2(NC(=O)CN2CCCC2)CC1=O` [19-38, 3β-O-(3′,3′-Dimethylsuccinyl)-17β-(2-pyrrolidin-1-yl-acetamido)-21-oxolup-18-ene] and `CC(C)C1=C2[C@H]3CC[C@@H]4[C@@]5(C)CC[C@H](OC(=O)CC(C)(C)C(=O)O)C(C)(C)[C@@H]5CC[C@@]4(C)[C@]3(C)CC[C@@]2(NC(=O)[C@@H]2CCCN2C)CC1=O` [19-42] cannot be ordered by IC50: less than 199 nM for the first, less than 199 nM for the second.

`CC(C)C1=C2C3CCC4[C@@]5(C)CC[C@H](OC(=O)CC(C)(C)C(=O)O)C(C)(C)C5CC[C@@]4(C)[C@]3(C)CC[C@@]2(NC(=O)C2CCOCC2)CC1=O` (stereo partly drawn) [19-30, 3β-O-(3′,3′-Dimethylsuccinyl)-17β-tetrahydro-pyran-4-carbonylamino-21-oxolup-18-ene] and `CC(C)C1=C2C3CCC4[C@@]5(C)CC[C@H](OC(=O)CC(C)(C)C(=O)O)C(C)(C)C5CC[C@@]4(C)[C@]3(C)CC[C@@]2(NC(=O)C2CC3CCC(C2)O3)CC1=O` (stereo partly drawn) [19-70, 3β-O-(3′,3′-Dimethylsuccinyl)-17β-(8β-oxa-bicyclo[3.2.1]octane-3-amido)-21-oxolup-18-ene] cannot be ordered by IC50: less than 199 nM for the first, less than 199 nM for the second.

`CC(C)C1=C2[C@H]3CC[C@@H]4[C@@]5(C)CC[C@H](OC(=O)CC(C)(C)C(=O)O)C(C)(C)[C@@H]5CC[C@@]4(C)[C@]3(C)CC[C@@]2(NC(=O)NC[C@@H]2CCCN2C(=O)OC(C)(C)C)CC1=O` [17-34, 3β-O-(3′,3′-Dimethylsuccinyl)-17β-[(3-(S)-1-tert-butyloxycarbonyl-pyrrolidin-2-ylmethyl)-ureido]-21-oxolup-18-ene] and `CC(C)C1=C2C3CCC4[C@@]5(C)CC[C@H](OC(=O)CC(C)(C)C(=O)O)C(C)(C)C5CC[C@@]4(C)[C@]3(C)CC[C@@]2(NC(=O)OCC2CCCN(C)C2)CC1=O` (stereo partly drawn) [20-19, 3β-O-(3′,3′-Dimethylsuccinyl)-17β-(1-methylpiperidine-3-methoxycarbonylamino)-21-oxolup-18-ene] cannot be ordered by IC50: less than 199 nM for the first, less than 199 nM for the second.

`CC(C)C1=C2C3CCC4[C@@]5(C)CC[C@H](OC(=O)CC(C)(C)C(=O)O)C(C)(C)C5CC[C@@]4(C)[C@]3(C)CC[C@@]2(NC(=O)NC2CCC(F)(F)CC2)CC1=O` (stereo partly drawn) [17-57, 3β-O-(3′,3′-Dimethylsuccinyl)-17β-[N′-(4,4-difluorocyclohexyl)ureido]-21-oxolup-18-ene] and `CC(C)C1=C2C3CCC4[C@@]5(C)CC[C@H](OC(=O)CC(C)(C)C(=O)O)C(C)(C)C5CC[C@@]4(C)[C@]3(C)CC[C@@]2(NC(=O)N[C@@H](C)C(F)(F)F)CC1=O` (stereo partly drawn) [17-50, 3β-O-(3′,3′-Dimethylsuccinyl)-17β-[N′-((S)-2,2,2-trifluoro-1-methyl-ethyl)-ureido]-21-oxolup-18-ene] cannot be ordered by IC50: less than 199 nM for the first, less than 199 nM for the second.

`CC(C)C1=C2[C@H]3CC[C@@H]4[C@@]5(C)CC[C@H](OC(=O)CC(C)(C)C(=O)O)C(C)(C)[C@@H]5CC[C@@]4(C)[C@]3(C)CC[C@@]2(NC(=O)c2cnccn2)CC1=O` [19-16, 3β-O-(3′,3′-Dimethylsuccinyl)-17β-(pyrazin-2-yl)amido-21-oxolup-18-ene] and `CC(C)C1=C2C3CCC4[C@@]5(C)CC[C@H](OC(=O)CC(C)(C)C(=O)O)C(C)(C)C5CC[C@@]4(C)[C@]3(C)CC[C@@]2(NC(=O)c2cncs2)CC1=O` (stereo partly drawn) [19-28, 3β-O-(3′,3′-Dimethylsuccinyl)-17β-(1,3-thiazole-5-amido)-21-oxolup-18-ene] cannot be ordered by IC50: less than 199 nM for the first, less than 199 nM for the second.

`CC(=O)N1CCN(C(=O)N[C@@]23CC[C@]4(C)[C@H](CC[C@@H]5[C@@]6(C)CC[C@H](OC(=O)CC(C)(C)C(=O)O)C(C)(C)[C@@H]6CC[C@]54C)C2=C(C(C)C)C(=O)C3)CC1` [17-17, 3β-O-(3′,3′-Dimethylsuccinyl)-17β-[(4-acetyl-piperazine-1-carbonyl)-amino]-21-oxolup-18-ene] and `CC(C)C1=C2C3CCC4[C@@]5(C)CC[C@H](OC(=O)CC(C)(C)C(=O)O)C(C)(C)C5CC[C@@]4(C)[C@]3(C)CC[C@@]2(NC(=O)OC2CCCCC2)CC1=O` (stereo partly drawn) [20-5, 3β-O-(3′,3′-Dimethylsuccinyl)-17β-cyclohexyloxycarbonylamino-21-oxolup-18-ene] cannot be ordered by IC50: less than 199 nM for the first, less than 199 nM for the second.

`CC(C)C1=C2C3CCC4[C@@]5(C)CC[C@H](OC(=O)CC(C)(C)C(=O)O)C(C)(C)C5CC[C@@]4(C)[C@]3(C)CC[C@@]2(NC(=O)N[C@H](C)C(F)(F)F)CC1=O` (stereo partly drawn) [17-51, 3β-O-(3′,3′-Dimethylsuccinyl)-17β-[N′-((R)-2,2,2-trifluoro-1-methyl-ethyl)-ureido]-21-oxolup-18-ene] and `CC(C)C1=C2C3CCC4[C@@]5(C)CC[C@H](OC(=O)CC(C)(C)C(=O)O)C(C)(C)C5CC[C@@]4(C)[C@]3(C)CC[C@@]2(NC(=O)NC2(c3ccccc3)CC2)CC1=O` (stereo partly drawn) [17-66, 3β-O-(3′,3′-Dimethylsuccinyl)-17β-[N′-(1-phenyl-cyclopropyl)-ureido]-21-oxolup-18-ene] cannot be ordered by IC50: less than 199 nM for the first, less than 199 nM for the second.

For `CC(C)C1=C2C3CCC4[C@@]5(C)CC[C@H](OC(=O)[C@H]6CCC[C@@H](C(=O)O)C6)C(C)(C)C5CC[C@@]4(C)[C@]3(C)CC[C@@]2(N)CC1=O` (stereo partly drawn) [15-2, 3β-O-(cis-Cyclohexane-3′-carboxylic acid-1′-carboxyl)-17β-amino-21-oxolup-18-ene], the IC50 was greater than 1000 nM.

Same assay, conditions: Human immunodeficiency virus 1, MT2 cells, without human serum, average IC50 if tested more than once, read-out: MT2 (HIVIIIB) IC50 range

Compared with `CC(C)C1=C2[C@H]3CC[C@@H]4[C@@]5(C)CC[C@H](OC(=O)[C@H]6CCC[C@@H](C(=O)O)C6)C(C)(C)[C@@H]5CC[C@@]4(C)[C@]3(C)CC[C@@]2(NC(=O)OC(C)(C)C)CC1=O` [14-2, 3β-O-(cis-Cyclohexane-3′-carboxylic acid-1′-carboxyl)-17β-[N-tert-butyloxycarbonyl-amino]-21-oxolup-18-ene], `CC(=O)N[C@@]12CC[C@]3(C)[C@H](CC[C@@H]4[C@@]5(C)CC[C@H](OC(=O)CC(C)(C)C(=O)O)C(C)(C)[C@@H]5CC[C@]43C)C1=C(C(C)C)C(=O)C2` [19-1, 3β-O-(3′,3′-Dimethylsuccinyl)-17β-acetylamino-21-oxolup-18-ene] is lower in IC50: greater than 1000 nM for the first, less than 199 nM for the second.

Compound `CC(C)C1=C2[C@H]3CC[C@@H]4[C@@]5(C)CC[C@H](OC(=O)CC(C)(C)C(=O)O)C(C)(C)[C@@H]5CC[C@@]4(C)[C@]3(C)CC[C@@]2(NC(=O)c2ccccc2)CC1=O` [19-2, 3β-O-(3′,3% Dimethylsuccinyl)-17β-benzamido-21-oxolup-18-ene] has an IC50 of less than 199 nM.
